Measured values published in patent publication US8618169B2, “Derivatives of N-phenylanthranilic acid and 2-benzimidazolone as potassium channel and/or neuron activity modulators” (Ramot at Tel-Aviv University Ltd., priority 2002, dated 2013).

Tests used:
Type in all cases: cell-based
[1] = target: T1, homomeric KCNQ3 (Homo sapiens, UniProt O43525); test: Homomeric KCNQ3 channels expressed in CHO cells, patch-clamp; conditions: 50 μM
T1 construct: expressed in transfected cells; host or cells: CHO cells

[2] = target: KCNQ2/Q3 (Homo sapiens, UniProt O43525+O43526); test: Opener potency on KCNQ2/Q3 by leftward shift of half-activation potential (ΔV50) versus concentration, Hill fit; parameters: expressed in transfected cells; conditions: compound alone
[3] = target: T2, homomeric KCNQ2 channels (Homo sapiens, UniProt O43526); test: Homomeric KCNQ2 channels expressed in CHO cells, patch-clamp; conditions: 50 μM
T2 construct: expressed in transfected cells; host or cells: CHO cells

[4] = system: F-11 neuronal cells; test: Spiking activity and membrane potential of F-11 neuronal cells, current-clamp; conditions: 10 μM
Description: F-11 neuronal cells were similarly cultured in F-12 Ham media containing 2 mM 1-glutamine supplemented with 10% fetal bovine serum, HAT supplement and antibiotics.
For current measurements in CHO cells, recordings were performed 40 hours following transfection, using the whole-cell configuration of the patch-clamp technique [Hamill et al., Nature 294: 462-464 (1981)]. Signals were amplified using an Axopatch 200B patch-clamp amplifier (Axon Instruments, Foster City, Calif., USA), sampled at 2 kHz and filtered at 800 Hz via a 4-pole Bessel low pass filter. Data were acquired using pClamp 8.1 software (Axon Instruments, Foster City, Calif., USA) and an Elonex Pentium III computer in conjunction with a DigiData 1322A interface (Axon Instruments, Foster City, Calif., USA). The patch pipettes were pulled from borosilicate glass (Warner Instrument. Corp., Hamden, Conn., USA) with a resistance of 2-5 MΩ and were filled with (in mM): 130 KCl, 1 MgCl2, 5 K2ATP, 5 EGTA, 10 HEPES, adjusted with KOH at pH 7.4 (290 mOsm). The external solution contained (in [mM]): 140 NaCl, 4 KCl, 1.8 CaCl2, 1.2 MgCl2, 11 glucose, 5.5 HEPES, adjusted with NaOH at pH 7.4 (310 mOsm). Series resistances (3-13 MΩ) were compensated (75-90%) and periodically monitored. For current-clamp measurements of rat cortical neurons, recordings were performed 10-14 days after plating, while rat DRG neurons recordings were performed 3 days after plating. The patch pipettes were filled with (in [mM]): 135 KCl, 1 K2ATP, 1 MgATP, 2 EGTA, 1.1 CaCl2, 5 glucose, 10 HEPES, adjusted with KOH at pH 7.4 (315 mOsm). The external solution contained (in [mM]): 140 NaCl, 4 KCl, 2 CaCl2, 2 MgCl2, 5 glucose, 10 HEPES, adjusted with NaOH at pH 7.4 (325 mOsm). For evoking the neuronal action potentials, 50-300 pA currents were injected into the cells for 800 ms (square pulse). Recordings were sampled at 5 kHz and filtered at 2 KHz via a 4-pole Bessel low pass filter. […]

[5] = system: COX (Cyclooxygenase); test: COX activity assay in C-26 cells (PGE2 radioimmunoassay)
Description: C-26 cells were plated on 24-well plates using RPMI medium. Different concentrations of the tested compound were added thereto and the cells were incubated for 30 minutes at 37° C. 30 μM exogenic arachidonic acid was then added and incubation was continued for 20 minutes (37° C.), so as to allow the cells to synthesize PGE2. Indomethacin was added thereafter (10 μM), to stop and completely block the activity. Then, the upper solution was removed into clean 24-wells. To the remained cells 100 μl NaOH (1M) were added to induce cytolysis, and the cells were left for later protein measurement. The solution removed to the new 24-well was used for a radioimmunoassay. The COX activity was estimated by calculating the ng PGE2/mg protein parameter.

[6] = system: hippocampal pyramidal neurons; test: Spontaneous EPSCs of hippocampal pyramidal neuron cultures, voltage-clamp
Description: To further determine the synaptic site of M-channel activation by Compound 6, its effects on spontaneous excitatory postsynaptic currents (EPSCs) that could be recorded from dense networks of hippocampal pyramidal neuron cultures was tested.
In FIGS. 30B and 30C, burst activity before (control), in the presence (Compound 6) and after (Wash) application of 5 μM (FIG. 30B) and 10 μM (FIG. 30C) Compound 6, as recorded at the voltage clamp mode is shown. In FIG. 30D, burst activity before (control) and in the presence of 25 μM Linopirdine is shown. In FIG. 30E, the normalized number of bursts appeared in 180 seconds time period for 5 μM (left panel), 10 μM (mid panel) of Compound 6 and 25 μM linopirdine (right panel) are shown. The holding potential was −70 mV. n=5-6.
Thus, using the voltage-clamp configuration of the patch-clamp technique, spontaneous EPSCs were isolated at −70 mV (holding potential) in the presence of 10 μM bicuculline and 10 μM picrotoxin to block GABAA receptor-mediated inhibitory postsynaptic currents. As is shown in FIG. 30A, under control conditions, the frequency of EPSCs is variable depending of the density of the hippocampal culture, ranging from 0.4 Hz to 2 Hz. […] However, the majority of the EPSCs measured at −70 mV under the experimental recording conditions are mediated by AMPA receptors as most of the currents are blocked by 10 μM NBQX, leaving only a small fraction EPSC sensitive to the NMDA receptor blocker DL-AP5 (FIG. 30A).

| SMILES | leftward shift of the activation curve of KCNQ3 channels ([1]; CHO cells) [mV] | increase of KCNQ3 current amplitude ([1]; stepped from −85 mV to −40 mV) [%] | τdeact of KCNQ3 with compound ([1]; control 319.6±40.8 msec) [ms] | V50 of KCNQ3 activation with compound ([1]; control −39.0±3.5 mV) [mV] | Hill coefficient ηH ([2]; Hill fit) | EC50 ([2]; Hill fit, read-out: EC50 of leftward shift of the half-activation potential (ΔV50)) [µM] | maximal left-shift of the half-activation potential (ΔV50) [2] [mV] | leftward shift in the activation curve of KCNQ2 channels ([3]; CHO cells) [mV] | increase of KCNQ2 current amplitude ([3]; stepped from −85 mV to −40 mV) [%] | time constant of deactivation τdeact of KCNQ2 with compound ([3]; control 92.6±3.9 msec) [ms] | V50 of KCNQ2 activation with compound ([3]; control −23.6±2.2 mV) [mV] | effect on spikes generated in F-11 cells [4] | hyperpolarization of the membrane potential [4] [mV] | membrane potential of the F-11 neuronal cell with compound ([4]; FIG. 26, from −59 mV) [mV] | COX inhibition activity (in words) [5] | IC50 ([5]; C-26 cells) [µM] | effect on COX activity ([5]; concentration of up to 10 μM) | frequency of spontaneous EPSCs ([6]; 5 μM, −70 mV holding potential) | occurrence of spontaneous EPSCs ([6]; ≧10 μM) |
| --- | --- | --- | --- | --- | --- | --- | --- | --- | --- | --- | --- | --- | --- | --- | --- | --- | --- | --- | --- |
| Cc1ccc(Cl)c(Nc2ccccc2C(=O)O)c1Cl [Compound 1, Meclofenamic acid] | −15 | 120±4 | 317.2 ± 30.2 | −54.0±2.0 | 2.1±0.5 | 25.7 ± 1.1 | −20±3 | −26.9 | 240±26 | 152.7 ± 4.9 | −50.5±1.4 |  |  |  |  |  |  |  |  |
| O=C(Cc1ccccc1Nc1c(Cl)cccc1Cl)NCCOCCO [Compound 6] |  |  |  |  |  |  |  |  |  |  |  | completely and reversibly blocks | 9±3 | −67 | do not exhibit COX inhibition activity | > 30 | did not block | up to 49±5 % of control | totally suppresses |
